Measurements taken from ChEMBL document CHEMBL1136135, “Synthesis of an amphiphilic tetraantennary mannosyl conjugate and incorporation into liposome carriers” (Bioorg Med Chem Lett, 2003).
Where “and” joins values, the source holds several entries; their conditions need not be identical. Equal entries are not always repeated.

What was measured:
Liposome [1] = assay: Mannose concentrations required for 50% turbidity reduction n the Surface of Liposomes; format: functional, subcellular
Liposome [2] = assay: Mannose concentrations required for 50% turbidity reduction on the Surface of Liposomes; format: functional, subcellular

IC50 (Liposome [1]) | IC50 (Liposome [2]) | SMILES
20 mM and 30 mM and 50 mM | – | CCCCCCCC/C=C\CCCCCCCCOCC(COCCOCCOCCOCCNC(=O)C(CCCCNC(=O)C(CCCCNC(=O)COCCOCCS[C@@H]1O[C@H](CO)[C@@H](O)[C@@H](O)[C@@H]1O)NC(=O)COCCOCCS[C@@H]1O[C@H](CO)[C@@H](O)[C@@H](O)[C@@H]1O)NC(=O)C(CCCCNC(=O)COCCOCCS[C@@H]1O[C@H](CO)[C@@H](O)[C@@H](O)[C@@H]1O)NC(=O)COCCOCCS[C@@H]1O[C@H](CO)[C@@H](O)[C@@H](O)[C@@H]1O)OCCCCCCCC/C=C\CCCCCCCC (some centres not stated)
– | 2 mM and 4 mM and 5 mM | CCCCCCCC/C=C\CCCCCCCCOCC(COCCOCCOCCOCCNC(=O)CCS[C@H]1OC(CO)[C@@H](O)[C@@H](O)C1O)OCCCCCCCC/C=C\CCCCCCCC (some centres not stated)
